Columns and labels:
Details in all cases: incubation time: 72 h
[1] = tested on: BT-474; test: drug sensitivity score (DSS), CellTiter-Glo (DSS (AUC-based score)); higher = stronger drug effect (viability inhibition or cytotoxicity); extreme values may be limits of the assay
Method in brief: (§1)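 Breast cancer cells were seeded into 384-well plates containing compound at 5 concentrations in 10-fold steps over a compound-specific 10,000-fold range and incubated 72 h. After CellTox Green and CellTiter-Glo readings, each plate was normalised to 0.1 % DMSO and a positive kill control. The drug sensitivity score rests on the area under the fitted dose-response curve.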

[2] = tested on: BT-549; test: as above
Method in brief: as §1

[3] = tested on: CAL-120; test: as above
Method in brief: as §1

[4] = tested on: CAL-148; test: as above
Method in brief: as §1

[5] = tested on: CAL-51; test: as above
Method in brief: as §1

[6] = tested on: DU-4475; test: as above
Method in brief: as §1

[7] = tested on: HCC1143; test: as above
Method in brief: as §1

[8] = tested on: HCC1599; test: as above
Method in brief: as §1

[9] = tested on: HCC1937; test: as above
Method in brief: as §1

[10] = tested on: HDQ-P1; test: as above
Method in brief: as §1

[11] = tested on: Hs578T; test: as above
Method in brief: as §1

[12] = tested on: MCF-10A; test: as above
Method in brief: as §1

[13] = tested on: MDA-MB-231; test: as above
Method in brief: as §1

[14] = tested on: MDA-MB-436; test: as above
Method in brief: as §1

[15] = tested on: MDA-MB-453; test: as above
Method in brief: as §1

[16] = tested on: MDA-MB-468; test: as above
Method in brief: as §1

[17] = tested on: MFM-223; test: as above
Method in brief: as §1

[18] = tested on: SK-BR-3; test: as above
Method in brief: as §1

[19] = tested on: BT-474; test: drug sensitivity score (DSS), CellTox Green (DSS (AUC-based score)); higher = stronger drug effect (viability inhibition or cytotoxicity); extreme values may be limits of the assay
Method in brief: as §1

[20] = tested on: CAL-120; test: as above
Method in brief: as §1

[21] = tested on: CAL-148; test: as above
Method in brief: as §1

[22] = tested on: CAL-51; test: as above
Method in brief: as §1

[23] = tested on: HCC1143; test: as above
Method in brief: as §1

[24] = tested on: HCC1937; test: as above
Method in brief: as §1

[25] = tested on: HDQ-P1; test: as above
Method in brief: as §1

[26] = tested on: MCF-10A; test: as above
Method in brief: as §1

[27] = tested on: MDA-MB-436; test: as above
Method in brief: as §1

| SMILES | drug sensitivity score [1] | drug sensitivity score [2] | drug sensitivity score [3] | drug sensitivity score [4] | drug sensitivity score [5] | drug sensitivity score [6] | drug sensitivity score [7] | drug sensitivity score [8] | drug sensitivity score [9] | drug sensitivity score [10] | drug sensitivity score [11] | drug sensitivity score [12] | drug sensitivity score [13] | drug sensitivity score [14] | drug sensitivity score [15] | drug sensitivity score [16] | drug sensitivity score [17] | drug sensitivity score [18] | drug sensitivity score [19] | drug sensitivity score [20] | drug sensitivity score [21] | drug sensitivity score [22] | drug sensitivity score [23] | drug sensitivity score [24] | drug sensitivity score [25] | drug sensitivity score [26] | drug sensitivity score [27] |
| --- | --- | --- | --- | --- | --- | --- | --- | --- | --- | --- | --- | --- | --- | --- | --- | --- | --- | --- | --- | --- | --- | --- | --- | --- | --- | --- | --- |
| COc1ccc(-c2cc3c(C)nc(N)nc3n([C@H]3CC[C@H](OCCO)CC3)c2=O)cn1 | 16.4 | 18.7 | 17.1 | 17.1 | 22.6 | 12.4 | 17.2 | 9.17 | 15.1 | 18.7 | 18 | 18.3 | 18.4 | 14.4 | 21.9 | 18.8 | 17 | 22.1 | 11.5 | 0 | 12.3 | 12.5 | 0 | 1.39 | 6.58 | 0 | 0 |
| Cc1c(Cn2c(C)nc3c(C(=O)O)cc(N4CCOCC4)cc32)cccc1C(F)(F)F | 0 | 3.9 | 0 | 0 | 12.3 | 0 | 0 | 0 | 0 | 0 | 0 | 0 | 0 | 0.153 | 0 | 3.65 | 0 | 0 | 0 | 0 | 0 | 0 | 0 | 0 | 0 | 0 | 0 |
| CC/C(=C(\c1ccc(O)cc1)c1ccc(OCCN(C)C)cc1)c1ccccc1 [4-hydroxytamoxifen] | 0 | 2.89 | 1.84 | 0 | 0 | 0 | 0 | 0 | 3.45 | 0 | 0 | 0 | 2.63 | 1.6 | 1.86 | 4.87 | 1.9 | 1.4 | 3.8 | 1.11 | 0 | 0 | 1.54 | 8.17 | 0 | 0 | 0.732 |
| CCCCC/C=C/C=C1/C(=O)C=C[C@@H]1C/C=C\CCCC(=O)O [15D-PGJ2] | 0 | 0 | 0 | 0 | 0 | 0 | 0 | 0 | 0 | 0 | 0 | 0 | 0 | 0 | 0 | 0 | 0 | 0 | 0 | 0 | 0 | 0 | 0 | 0 | 0 | 0 | 0 |
| O=C(Nc1c[nH]nc1-c1nc2ccc(CN3CCOCC3)cc2[nH]1)NC1CC1 [AT9283] | 5.15 | 4.94 | 5.15 | 0 | 7.83 | 1.31 | 2.84 | 0 | 0 | 2.87 | 4.11 | 5.49 | 6.11 | 0 | 0 | 13.4 | 1.08 | 1.96 | 0 | 3.42 | 0 | 14 | 0 | 0 | 0 | 0 | 0 |
| COc1cc(CCc2cc(NC(=O)c3ccc(N4CC(C)NC(C)C4)cc3)n[nH]2)cc(OC)c1 (stereo not drawn) [AZD4547] | 0 | 0.487 | 3.61 | 0 | 0 | 0 | 0 | 0 | 0 | 0 | 0.967 | 1.73 | 0 | 0 | 0.805 | 0 | 12.2 | 0 | 0 | 0.0106 | 0.783 | 0 | 3.67 | 0 | 2.76 | 0 | 0 |
| CC(=O)OC[C@H]1O[C@@H]([S-])[C@H](OC(C)=O)[C@@H](OC(C)=O)[C@@H]1OC(C)=O.CCP(CC)CC.[Au+] [Auranofin] | 1.22 | 9.2 | 0.998 | 1.24 | 11.7 | 1.74 | 5.15 | 1.36 | 7.45 | 3.9 | 3.87 | 1.42 | 4.38 | 5.88 | 6.93 | 14.9 | 2.71 | 1.76 | 3.42 | 0.776 | 0.881 | 3.46 | 0.33 | 4.79 | 6.27 | 0 | 0 |
| CCC/C=C/C=C/C(=O)O[C@H]1/C(=C/C(=O)OC)C[C@H]2C[C@H]([C@@H](C)O)OC(=O)C[C@H](O)C[C@@H]3C[C@H](OC(C)=O)C(C)(C)[C@](O)(C[C@@H]4C/C(=C/C(=O)OC)C[C@H](/C=C/C(C)(C)[C@]1(O)O2)O4)O3 [Bryostatin 1] | 1.75 | 0.294 | 0 | 0 | 6.93 | 0 | 0 | 0 | 0 | 1.62 | 4.68 | 0 | 0 | 0 | 0 | 0 | 0 | 10.8 | 0 | 0 | 0 | 0 | 0 | 4.81 | 10.8 | 0 | – |
| CO[C@@H](C(=O)N1Cc2[nH]nc(NC(=O)c3ccc(N4CCN(C)CC4)cc3)c2C1)c1ccccc1 [Danusertib] | 5.14 | 10.7 | 6.46 | 3.57 | 9.2 | 5.98 | 5.41 | 0 | 0 | 3.68 | 3.96 | 12 | 5.32 | 4.68 | 0 | 18.3 | 14.3 | 0 | 0 | 3.17 | 0 | 13.8 | 0 | 1.64 | 0.964 | 0.832 | 3.88 |
| Cc1nc(Nc2ncc(C(=O)Nc3c(C)cccc3Cl)s2)cc(N2CCN(CCO)CC2)n1 [Dasatinib] | 11.4 | 7.26 | 8.55 | 0 | 11.8 | 0 | 6.57 | 0 | 6.2 | 14.9 | 8.38 | 15.9 | 14.2 | 0.821 | 0 | 4.01 | 0 | 0 | 0 | 0 | 0 | 6.25 | 0 | 0 | 0 | 7.15 | 0 |
| O=S(=O)(c1cccc2cnccc12)N1CCCNCC1 [Fasudil] | 0 | 1.25 | 0 | 0 | 0 | 0.0897 | 0 | 0 | 0 | 0 | 0.0914 | 0 | 0 | 0 | 1.2 | 0 | 0 | 0 | 0 | 0 | 0 | 0 | 0 | 0 | – | 0 | 0 |
| Cc1c(CN2CCN(C(=O)[C@H](C)O)CC2)sc2c(N3CCOCC3)nc(-c3cnc(N)nc3)nc12 [GDC-0980] | 8.66 | 13.1 | 10.9 | 12.4 | 14.7 | 6.71 | 11.4 | 2.28 | 6.52 | 14.1 | 12.6 | 12.6 | 9.56 | 8.47 | 17.5 | 10.1 | 12.7 | 18.5 | 4.57 | 0 | 6.07 | 6.08 | 3.43 | 0 | 1.58 | 0 | 0 |
| C[C@]12C=CC(=O)C=C1CC[C@@H]1[C@@H]2[C@@H](O)C[C@@]2(C)[C@H]1CC[C@]2(O)C(=O)CO [Prednisolone] | 0 | 0 | 5.1 | 0 | 0 | 0 | 0 | 0 | 0 | 2.08 | 0 | 0 | 0 | 0 | 0 | 0 | 0 | 0 | 0 | 0 | 0 | 0 | 1.2 | 0 | 0.861 | 0 | – |

From the supplement of paper PMC4862054
